{"source": "patent US10023839B2", "about": "“Anti-tumour vaccine derived from normal cells” (Cytovac A/S, priority 2007, dated 2018)", "tested_on": "cancer/testis antigens (MAGE-A1, -A3, -A4, -A6, -A10, -A12, NY-ESO-1, GAGE-3-7, BORIS) in proliferating lymphocytes", "assay": "RT-PCR analysis of cancer/testis antigen expression in 5-Aza-CdR-treated proliferating lymphocytes", "data": [{"smiles": "Nc1ncn([C@H]2C[C@H](O)[C@@H](CO)O2)c(=O)n1", "note": "[Culture 5-Aza-CdR, 5-Aza-2′-deoxycytidine]", "values": [{"measurement": "induction of CTA expression (RT-PCR)", "setting": "10 μM 5-aza-2′-deoxycytidine, 150 IU/ml IL-2, 3 days, lymphocytes expanded with autologous mature dendritic cells", "result": "all the investigated antigens are present in the induced lymphocytes"}, {"measurement": "CTA expression, cultures from log phase of growth (day 8) versus plateau (day 10)", "setting": "10 μM 5-aza-2′-deoxycytidine, 3 days", "result": "higher expression in cultures taken from log phase of growth"}, {"measurement": "most easily inducible CTA", "setting": "preliminary experiments on kinetics and concentration dependence (not shown)", "result": "MAGE-A1, MAGE-A4 and MAGE-A12"}]}]}
